Test results: patent US8202997B2, “Compositions and methods for treating or preventing hypoxic or ischemic injury” (Ikaria, Inc., priority 2008, dated 2012)

What was measured:
[1] = tested on: myocardial ischemia-reperfusion (I/R) injury; assay: Murine myocardial ischemia reperfusion model; assay type: in vivo, mice
Protocol: The ability of compound (3-1) to provide cardioprotective benefits in a myocardial ischemia-reperfusion (I/R) injury model was tested in mice. In this study, it is shown that bolus administration of compound (3-1) into the left ventricular cavity post-ischemia and five minutes prior to a 24-hour reperfusion period reduced myocardial ischemia and reduced myocardial infarct size as a percentage of risk area. The mice used in these studies were C57-BL6/J mice, 8-10 weeks, (Jackson Laboratory, Bar Harbor, Me.). Food and water were provided ad libitum. Test animals were allowed to acclimate in a temperature and humidity controlled environment prior to the commencement of experimental procedures.
Mice were anesthetized with ketamine and pentobarbital sodium and maintained with warming during surgical procedures to induce myocardial ischemia-reperfusion (I/R) injury. […]
After 24 hours of reperfusion, post-ischemia, mice were anesthetized, intubated, and connected to a rodent ventilator. […] Each of the five myocardial slices (1-mm) were weighed, areas of infarction, area at risk (AAR), and non-ischemic left ventricle were assessed with computer-assisted planimetry by an observer blinded to sample identity. […]
Data were analyzed by 2-way ANOVA with post-hoc Bonferroni analysis using StatView software version 5.0 (SAS Institute). […]

[2] = tested on: hepatic ischemia-reperfusion (I/R) injury; assay: Murine hepatic ischemia-reperfusion injury model; assay type: in vivo, mice; settings: for serum liver transaminase (ALT) levels: C57-BL6/J mice, after five hours reperfusion, compared to vehicle
Protocol: The ability of compound (3-1) to provide cytoprotective benefit in a model of hepatic ischemia-reperfusion (I/R) injury was tested in mice.
The mice used in these studies were C57-BL6/J mice, 8-10 weeks, (Jackson Laboratory, Bar Harbor, Me.). Food and water were provided ad libitum. Test animals were allowed to acclimate in a temperature and humidity controlled environment prior to the commencement of experimental procedures.
Mice were anesthetized with ketamine and xylazine and maintained with warming during surgical procedures to induce hepatic ischemia-reperfusion (UR) injury. Specifically, a midline incision was performed to expose the liver, and heparin was injected to prevent blood clotting. Both the hepatic artery and portal vein were clamped with microaneurysm clamps to render the left lateral and median lobes of the liver ischemic. Ischemia proceeded for 45 minutes, with the liver maintained in the peritoneal cavity in its original location and kept moist with gauze soaked with 0.9% normal saline. Control mice received sham surgeries, although hepatic blood flow was not reduced with a microaneurysm clamp. At the end of 45 minutes, microaneurysm clamps were removed. Serum liver transaminase levels (ALT) were tested after five hours of hepatic reperfusion using spectrophotometry and commercially available reagents (Sigma-Aldrich).
Murine hepatic ischemia-reperfusion injury test animals were randomized to four groups. Group 1: vehicle (EtOH/PEG300+0.1% citric acid) treated; Group 2: treatment with 7 mg/kg Compound (3-1); Group 3: treatment with 15.0 mg/kg Compound (3-1). […] ALT levels were reduced in the two treatment groups (7.0 mg/kg, and 15.0 mg/kg), compared to vehicle.

c1ccc(CSSSSCc2ccccc2)cc1 [Compound 3-1, 1,4-dibenzyltetrasulfane]
myocardial infarct size as a percentage of risk area ([1]; C57-BL6/J mice, 7 mg/kg bolus into left ventricular cavity after 30 minutes ischemia, five minutes prior to 24 hour reperfusion): reduced
myocardial ischemia ([1]; mice, bolus into left ventricular cavity post-ischemia, five minutes prior to 24-hour reperfusion): reduced
serum liver transaminase (ALT) levels ([2]; 7 mg/kg intraperitoneal bolus post-ischemia (45 min)): statistically significant reduction
serum liver transaminase (ALT) levels ([2]; 15.0 mg/kg intraperitoneal bolus post-ischemia (45 min)): reduced
liver transaminase alanine aminotransferase (ALT) measured in serum ([2]; mice, intraperitoneal bolus post-hepatic ischemia, immediately prior to five hour reperfusion, dose not given): decreased
